Test results reported in US20050008664A1, “Compositions and methods related to lipid:emodin formulations” (Board of Regents, The University of Texas System, priority 2002, published 2005).

Key:
[1] = test system: tetracycline regulatable 32D-P210 cell line; assay: MTT assay of cell growth, 3 day exposure to emodin; type: cell-based; details: emodin solubilized in DMSO, MTT assay at 72 hours, read-out: IC 50, inhibition of cellular growth
Protocol: In Vitro: A tetracycline regulatable 32D-P210 cell line was cultured in RPMI 1640 with 10% FCS and 10% Wehi supernatant and cultured at 37° C. Emodin was solubilized in DMSO at a concentration of 0.4 M for in vitro assays. A concentration of 3×10^4 cells/ml were used in a 24 well plate for a 3 day exposure to emodin. Emodin was assayed at 60 μM, 30 μM, and 10 μM concentrations. At 72 hours, a MTT assay was performed to provide a colorometric analysis of cell growth.

leukemia = assay: In vivo study of alkaline emodin preparation in leukemia-injected C3H-HEJ mice
Protocol: In vivo: The mouse strain C3H-HEJ (8-10 weeks old) were used for in vivo studies. Emodin was prepared in an alkaline preparation at 10 mg/ml, and was administered to the animals via tail vein injections. One cohort of animals received a single dose of emodin equal to 43 mg/kg per animal. Two other cohorts received either two doses of drug, administered on consecutive days, or there doses of drug, administered on consecutive days. The total concentration of drug administered were 86 mg/kg and 129 mg/kg, respectively. Animals were followed until death, euthanized upon detection of illness, or euthanized at 100 days post leukemia injection.

## Cc1cc(O)c2c(c1)C(=O)c1cc(O)cc(O)c1C2=O [emodin, 3-methyl-1,6, 8 trihydroxyanthra-quinone]
[1]
  IC50: ~10 µM
leukemia; alkaline preparation at pH 10, tail vein injection, some bruising of the tail noted
  tolerability of the preparation by the animal: moderately well tolerated
leukemia; alkaline preparation, tail vein injections, 43, 86 or 129 mg/kg total, untreated 25 days, animals sacrificed at 100 days
  lifespan of animals injected with leukemia: 100 days
